# Data as given in the supplement of paper PMC10307832.
# Legend:
# Test in all cases: relative viability (nuclei count vs DMSO), 5 days (fraction); higher = more cells survive
# [1] = tested on: NCI-H2126
# In short: (§1)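 A single step with final 0.05% Triton X-100, 1% formaldehyde and 1 ug/ml Hoechst fixed the cells and stained nuclei 5 days after treatment. Lung cancer cell lines in 1536-well plates had been treated by pin tool the day after seeding with one drug alone or a fixed anchor-drug dose plus five library-drug doses (not always all listed) in √10 steps, and nuclei were counted on 4× images. Relative viability is the ratio of nuclei in treated wells to nuclei in vehicle wells, taken as the median of duplicate plates.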
# [2] = tested on: NCI-H322M
# In short: as §1
# [3] = tested on: HOP-62
# In short: as §1
# [4] = tested on: NCI-H1650
# In short: as §1
# [5] = tested on: NCI-H2085
# In short: as §1
# [6] = tested on: NCI-H358
# In short: as §1
# [7] = tested on: NCI-H2023
# In short: as §1
# [8] = tested on: NCI-H2342
# In short: as §1
# [9] = tested on: SK-LU-1
# In short: as §1
# [10] = tested on: EMC-BAC-2
# In short: as §1
# [11] = tested on: NCI-H661
# In short: as §1
# [12] = tested on: NCI-H1993
# In short: as §1
# [13] = tested on: NCI-H1915
# In short: as §1
# [14] = tested on: PC-14
# In short: as §1
# [15] = tested on: BEN
# In short: as §1
# [16] = tested on: NCI-H647
# In short: as §1
# [17] = tested on: NCI-H2347
# In short: as §1
# [18] = tested on: LCLC-97TM1
# In short: as §1
# [19] = tested on: NCI-H2009
# In short: as §1
# [20] = tested on: SW 1573
# In short: as §1
# [21] = tested on: LXF-289
# In short: as §1
# [22] = tested on: NCI-H727
# In short: as §1
# [23] = tested on: H3255
# In short: as §1
smiles,measurement,setting,value
COc1cc(N2CCC(C(N)=O)CC2)ccc1Nc1nc(N)c(Cl)c(Nc2ccccc2S(=O)(=O)C(C)C)n1 [HG-5-88-01] + CC(=O)Nc1cccc(-n2c(=O)n(C3CC3)c(=O)c3c(Nc4ccc(I)cc4F)n(C)c(=O)c(C)c32)c1 [Trametinib] (partner 0.02 µM),relative viability,[1]; first compound 0.04 µM,0.592
same,relative viability,[1]; first compound 0.1265 µM,0.564
same,relative viability,[1]; first compound 0.4 µM,0.557
same,relative viability,[1]; first compound 1.265 µM,0.543
same,relative viability,[1]; first compound 4 µM,0.558
same,relative viability,[2]; first compound 0.04 µM,0.486
same,relative viability,[2]; first compound 0.1265 µM,0.459
same,relative viability,[2]; first compound 0.4 µM,0.524
same,relative viability,[2]; first compound 1.265 µM,0.36
same,relative viability,[2]; first compound 4 µM,0.451
same,relative viability,[3]; first compound 0.04 µM,0.391
same,relative viability,[3]; first compound 0.1265 µM,0.411
same,relative viability,[3]; first compound 0.4 µM,0.345
same,relative viability,[3]; first compound 1.265 µM,0.317
same,relative viability,[3]; first compound 4 µM,0.383
same,relative viability,[4]; first compound 0.04 µM,0.586
same,relative viability,[4]; first compound 0.1265 µM,0.633
same,relative viability,[4]; first compound 0.4 µM,0.559
same,relative viability,[4]; first compound 1.265 µM,0.386
same,relative viability,[4]; first compound 4 µM,0.532
same,relative viability,[5]; first compound 0.04 µM,0.613
same,relative viability,[5]; first compound 0.1265 µM,0.553
same,relative viability,[5]; first compound 0.4 µM,0.502
same,relative viability,[5]; first compound 1.265 µM,0.478
same,relative viability,[5]; first compound 4 µM,0.432
same,relative viability,[6]; first compound 0.04 µM,0.123
same,relative viability,[6]; first compound 0.1265 µM,0.124
same,relative viability,[6]; first compound 0.4 µM,0.131
same,relative viability,[6]; first compound 1.265 µM,0.106
same,relative viability,[6]; first compound 4 µM,0.105
same,relative viability,[7]; first compound 0.04 µM,0.563
same,relative viability,[7]; first compound 0.1265 µM,0.535
same,relative viability,[7]; first compound 0.4 µM,0.475
same,relative viability,[7]; first compound 1.265 µM,0.364
same,relative viability,[7]; first compound 4 µM,0.2
same,relative viability,[8]; first compound 0.04 µM,0.846
same,relative viability,[8]; first compound 0.1265 µM,0.939
same,relative viability,[8]; first compound 0.4 µM,0.865
same,relative viability,[8]; first compound 4 µM,0.969
same,relative viability,[9]; first compound 0.04 µM,0.394
same,relative viability,[9]; first compound 0.1265 µM,0.388
same,relative viability,[9]; first compound 0.4 µM,0.451
same,relative viability,[9]; first compound 1.265 µM,0.474
same,relative viability,[9]; first compound 4 µM,0.363
same,relative viability,[10]; first compound 0.04 µM,0.927
same,relative viability,[10]; first compound 0.1265 µM,0.939
same,relative viability,[10]; first compound 0.4 µM,0.8
same,relative viability,[10]; first compound 1.265 µM,0.564
same,relative viability,[10]; first compound 4 µM,0.632
same,relative viability,[11]; first compound 0.04 µM,0.591
same,relative viability,[11]; first compound 0.1265 µM,0.666
same,relative viability,[11]; first compound 0.4 µM,0.573
same,relative viability,[11]; first compound 1.265 µM,0.554
same,relative viability,[11]; first compound 4 µM,0.608
same,relative viability,[12]; first compound 0.04 µM,0.413
same,relative viability,[12]; first compound 0.1265 µM,0.458
same,relative viability,[12]; first compound 0.4 µM,0.447
same,relative viability,[12]; first compound 4 µM,0.45
same,relative viability,[13]; first compound 0.04 µM,0.327
same,relative viability,[13]; first compound 0.1265 µM,0.338
same,relative viability,[13]; first compound 0.4 µM,0.353
same,relative viability,[13]; first compound 1.265 µM,0.313
same,relative viability,[13]; first compound 4 µM,0.317
same,relative viability,[14]; first compound 0.04 µM,0.825
same,relative viability,[14]; first compound 0.1265 µM,0.836
same,relative viability,[14]; first compound 0.4 µM,0.626
same,relative viability,[14]; first compound 1.265 µM,0.28
same,relative viability,[14]; first compound 4 µM,0.0722
same,relative viability,[15]; first compound 0.04 µM,1.04
same,relative viability,[15]; first compound 0.1265 µM,1.12
same,relative viability,[15]; first compound 0.4 µM,1.16
same,relative viability,[15]; first compound 1.265 µM,0.76
same,relative viability,[15]; first compound 4 µM,1.06
same,relative viability,[16]; first compound 0.04 µM,0.436
same,relative viability,[16]; first compound 0.1265 µM,0.444
same,relative viability,[16]; first compound 1.265 µM,0.488
same,relative viability,[16]; first compound 4 µM,0.527
same,relative viability,[17]; first compound 0.04 µM,0.324
same,relative viability,[17]; first compound 0.1265 µM,0.284
same,relative viability,[17]; first compound 0.4 µM,0.227
same,relative viability,[17]; first compound 1.265 µM,0.229
same,relative viability,[17]; first compound 4 µM,0.247
same,relative viability,[18]; first compound 0.04 µM,0.154
same,relative viability,[18]; first compound 0.1265 µM,0.211
same,relative viability,[18]; first compound 0.4 µM,0.188
same,relative viability,[18]; first compound 1.265 µM,0.147
same,relative viability,[18]; first compound 4 µM,0.136
same,relative viability,[19]; first compound 0.04 µM,0.272
same,relative viability,[19]; first compound 0.1265 µM,0.271
same,relative viability,[19]; first compound 0.4 µM,0.264
same,relative viability,[19]; first compound 1.265 µM,0.211
same,relative viability,[19]; first compound 4 µM,0.295
same,relative viability,[20]; first compound 0.04 µM,0.598
same,relative viability,[20]; first compound 0.1265 µM,0.533
same,relative viability,[20]; first compound 0.4 µM,0.581
same,relative viability,[20]; first compound 1.265 µM,0.464
same,relative viability,[20]; first compound 4 µM,0.52
same,relative viability,[21]; first compound 0.04 µM,0.672
same,relative viability,[21]; first compound 0.1265 µM,0.692
same,relative viability,[21]; first compound 0.4 µM,0.511
same,relative viability,[21]; first compound 1.265 µM,0.677
same,relative viability,[21]; first compound 4 µM,0.672
same,relative viability,[22]; first compound 0.04 µM,0.379
same,relative viability,[22]; first compound 0.1265 µM,0.394
same,relative viability,[22]; first compound 0.4 µM,0.399
same,relative viability,[22]; first compound 4 µM,0.364
same,relative viability,[23]; first compound 0.04 µM,0.563
same,relative viability,[23]; first compound 0.1265 µM,0.697
same,relative viability,[23]; first compound 0.4 µM,0.619
same,relative viability,[23]; first compound 4 µM,0.539
CC(C)Oc1cc(Nc2nc(N[C@@H](C)c3ccc(F)cn3)ncc2Cl)n[nH]1 [AZ23] + Cc1cc(Nc2cc(N3CCN(C)CC3)nc(Sc3ccc(NC(=O)C4CC4)cc3)n2)n[nH]1 [Tozasertib] (partner 0.1 µM),relative viability,[1]; first compound 0.01 µM,0.923
same,relative viability,[1]; first compound 0.03162 µM,0.939
same,relative viability,[1]; first compound 0.3162 µM,0.892
same,relative viability,[2]; first compound 0.03162 µM,0.501
same,relative viability,[2]; first compound 0.3162 µM,0.434
same,relative viability,[3]; first compound 0.01 µM,0.352
same,relative viability,[3]; first compound 0.03162 µM,0.424
same,relative viability,[3]; first compound 0.3162 µM,0.37
same,relative viability,[4]; first compound 0.03162 µM,0.433
same,relative viability,[4]; first compound 0.3162 µM,0.45
same,relative viability,[5]; first compound 0.01 µM,0.799
same,relative viability,[5]; first compound 0.03162 µM,0.855
same,relative viability,[5]; first compound 0.3162 µM,0.803
same,relative viability,[6]; first compound 0.01 µM,0.101
same,relative viability,[6]; first compound 0.03162 µM,0.114
same,relative viability,[6]; first compound 0.3162 µM,0.107
same,relative viability,[7]; first compound 0.03162 µM,0.457
same,relative viability,[7]; first compound 0.3162 µM,0.46
same,relative viability,[8]; first compound 0.01 µM,0.482
same,relative viability,[8]; first compound 0.03162 µM,0.483
same,relative viability,[8]; first compound 0.3162 µM,0.455
same,relative viability,[9]; first compound 0.03162 µM,0.382
same,relative viability,[9]; first compound 0.3162 µM,0.335
same,relative viability,[10]; first compound 0.01 µM,0.262
same,relative viability,[10]; first compound 0.03162 µM,0.28
same,relative viability,[10]; first compound 0.3162 µM,0.296
same,relative viability,[11]; first compound 0.01 µM,0.366
same,relative viability,[11]; first compound 0.03162 µM,0.354
same,relative viability,[11]; first compound 0.3162 µM,0.353
same,relative viability,[12]; first compound 0.01 µM,0.593
same,relative viability,[12]; first compound 0.03162 µM,0.604
same,relative viability,[12]; first compound 0.3162 µM,0.548
same,relative viability,[13]; first compound 0.01 µM,0.479
same,relative viability,[13]; first compound 0.03162 µM,0.507
same,relative viability,[13]; first compound 0.3162 µM,0.514
same,relative viability,[14]; first compound 0.01 µM,0.428
same,relative viability,[14]; first compound 0.03162 µM,0.656
same,relative viability,[14]; first compound 0.3162 µM,0.696
same,relative viability,[15]; first compound 0.01 µM,0.483
same,relative viability,[15]; first compound 0.03162 µM,0.544
same,relative viability,[15]; first compound 0.3162 µM,0.527
same,relative viability,[16]; first compound 0.01 µM,0.146
same,relative viability,[16]; first compound 0.03162 µM,0.449
same,relative viability,[16]; first compound 0.3162 µM,0.261
same,relative viability,[17]; first compound 0.01 µM,0.645
same,relative viability,[17]; first compound 0.03162 µM,0.609
same,relative viability,[17]; first compound 0.3162 µM,0.604
same,relative viability,[18]; first compound 0.01 µM,0.186
same,relative viability,[18]; first compound 0.03162 µM,0.266
same,relative viability,[18]; first compound 0.3162 µM,0.194
same,relative viability,[19]; first compound 0.01 µM,0.755
same,relative viability,[19]; first compound 0.03162 µM,0.912
same,relative viability,[19]; first compound 0.3162 µM,0.91
same,relative viability,[20]; first compound 0.01 µM,0.168
same,relative viability,[20]; first compound 0.03162 µM,0.151
same,relative viability,[20]; first compound 0.3162 µM,0.17
same,relative viability,[21]; first compound 0.01 µM,0.222
same,relative viability,[21]; first compound 0.03162 µM,0.205
same,relative viability,[21]; first compound 0.3162 µM,0.204
same,relative viability,[22]; first compound 0.01 µM,0.754
same,relative viability,[22]; first compound 0.03162 µM,0.679
same,relative viability,[22]; first compound 0.3162 µM,0.37
same,relative viability,[23]; first compound 0.01 µM,0.662
same,relative viability,[23]; first compound 0.03162 µM,0.821
same,relative viability,[23]; first compound 0.3162 µM,0.675
